The target of data set [1] is T1, human CB1 (hCB1) receptor (Homo sapiens, UniProt P21554).
T1 construct: expressed in transfected cells; host or cells: CHO-K1
In words: Inhibition of forskolin-activated cAMP production upon activation of human CB1 receptor (HTRF assay, CHO-K1 cells). The following applies: agonism; CHO-K1 cells stably transfected with hCB1; pEC50=-log(EC50); relative to CP55490; read-out: CB-1 pEC50 (converted). Type of data set: cell-based. As to the method:
(§1) Functional activity of the test compounds was assessed by measuring their potency to inhibit forskolin-activated cAMP production upon activation of the human CB1 (hCB1) or human CB2 (hCB2) receptor through homogenous time resolved fluorescence (HTRF) assays.
(§2) CHO-K1 cells stably transfected with either hCB1 or hCB2 were grown up to 80-90% confluence in T175 Falcon flasks in DMEM/NUT MIX F-12 culture medium complemented with 2% Solution A (5.10^6 IU/1 penicillin G, 5 g/l streptomycin sulphate, 5.5 g/l pyruvate, 14.6 g/l L-glutamine, 1M NaOH) and 10% foetal calf serum. Before the experiments, medium was removed, cells were washed with PBS/EDTA (140 mM NaCl, 1 mM Na2-EDTA, 8 mM Na2HPO4.2H2O, 8.5 mM KH2PO4, 2.7 mM KCl, 21 mM glucose), resuspended in stimulation buffer (HBSS 1×, IBMX 1 mM, Hepes 5 mM, MgCl2 10 mM, BSA 0.1%, pH 7.4). Cells were diluted to a concentration of 8.10^5 cell/ml for hCB1 experiments and 10^6 cells/ml for hCB2 experiments. Assays were performed using the cAMP Dynamic HTRF kit (CIS bio international, France) according to the recommendations of the manufacturer.
For CB1, each well of a 96 flat bottom black polystyrene assay plate (Costar) was filled with 25 μl stimulation buffer containing 6 μM forskolin and either test compound (in 2% DMSO), 2% DMSO or 2 μM CP55490 (in 2% DMSO). Then, 25 μl of the diluted cells was added (20,000 cells/well). After 30 minutes incubation in dark at room temperature, 25 μl cAMP-XL665 and 25 μl anti-cAMP cryptate (both at a final dilution of 1/80) was added to the cells.
(§3) After equilibration of the reaction mixtures for 1 to 24 hours in dark at room temperature, fluorescence was measured at 665 nm and 620 nm using a Discovery microplate fluorescence counter (Perkin Elmer), and the signal ratio of 665 nm/620 nm was calculated. The signal ratios of the test compounds were expressed relative to the signal ratios of the DMSO control (maximal signal ratio, no inhibition of cAMP) and CP55490 or WIN55212-2 for hCB1 and hCB2, respectively (minimal signal ratio, maximal inhibition of cAMP). From the dose response curves generated for each test compound, the dose at which 50% of the maximal inhibition of cAMP level is observed (EC50, expressed in the Tables as pEC50=−log(EC50) values) and the level of inhibition reached with 10 μM of the test compound compared to CP55490 (for hCB1) or WIN55212-2 (for hCB2) was calculated.
In general terms: Changes in cAMP serve as a functional read-out for many G protein-coupled receptors.

Data set [2] has as its target T2, human CB2 (hCB2) receptor (Homo sapiens, UniProt P34972).
T2 construct: expressed in transfected cells; host or cells: CHO-K1
In words: Inhibition of forskolin-activated cAMP production upon activation of human CB2 receptor (HTRF assay, CHO-K1 cells). The following applies: agonism; CHO-K1 cells stably transfected with hCB2; pEC50=-log(EC50); relative to WIN55212-2; read-out: CB-2 pEC50 (converted). The data set is classed as cell-based. On the procedure:
as §1, §2
For CB2, each well of a 384 flat bottom black polystyrene assay plate (Costar) was filled with 10 μl stimulation buffer containing 15 μM forskolin and either test compound (in 3% DMSO), 3% DMSO or 10 μM Win55212-2 (in 3% DMSO). Then, 20 μl of the diluted hCB2-CHO-K1 cells was added (20,000 cells/well). After 30 minutes incubation in dark at room temperature, 10 μl cAMP-XL665 and 10 μl anti-cAMP cryptate (both at a final dilution of 1/100) was added to the cells.
as §3

SMILES strings stand for the structures.

T1 sequence (P21554 whole entry): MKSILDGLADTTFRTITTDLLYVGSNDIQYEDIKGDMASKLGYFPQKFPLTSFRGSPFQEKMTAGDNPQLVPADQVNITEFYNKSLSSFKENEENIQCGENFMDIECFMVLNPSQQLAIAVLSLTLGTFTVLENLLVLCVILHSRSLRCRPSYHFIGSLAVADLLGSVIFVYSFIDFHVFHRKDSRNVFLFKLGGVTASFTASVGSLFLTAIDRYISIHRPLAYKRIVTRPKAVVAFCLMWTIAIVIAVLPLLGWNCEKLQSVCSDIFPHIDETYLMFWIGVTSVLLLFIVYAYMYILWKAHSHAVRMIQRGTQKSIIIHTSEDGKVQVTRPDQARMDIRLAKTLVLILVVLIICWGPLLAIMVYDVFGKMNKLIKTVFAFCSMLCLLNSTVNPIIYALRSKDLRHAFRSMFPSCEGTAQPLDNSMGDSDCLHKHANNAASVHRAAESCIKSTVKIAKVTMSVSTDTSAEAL
T2 sequence (P34972 whole entry): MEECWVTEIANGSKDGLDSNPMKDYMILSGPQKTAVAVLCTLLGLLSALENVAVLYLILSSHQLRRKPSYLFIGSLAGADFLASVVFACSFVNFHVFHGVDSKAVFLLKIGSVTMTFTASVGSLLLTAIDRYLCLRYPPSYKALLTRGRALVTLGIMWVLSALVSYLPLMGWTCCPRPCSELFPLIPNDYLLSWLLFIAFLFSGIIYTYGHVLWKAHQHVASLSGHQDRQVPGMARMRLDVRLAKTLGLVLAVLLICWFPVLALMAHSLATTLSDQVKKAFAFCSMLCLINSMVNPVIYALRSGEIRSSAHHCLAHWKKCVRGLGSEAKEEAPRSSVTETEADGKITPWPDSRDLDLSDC

Consider `CC(C)(C)c1nc2cc(S(=O)(=O)c3ccc(C(N)=O)cc3)ccc2n1CCCC(F)(F)F` [compound 18], for which the EC50 in data set [1] is 2000 nM; in data set [2], 3.16 nM.

The term melting point denotes the temperature, or range, at which the solid turns liquid. Turning to `CC(C)(C)c1nc2cc(S(=O)(=O)c3cn[nH]c3)ccc2n1CCCC(F)(F)F` [compound 5], the melting point worked out at 220.8 °C. In addition, the EC50 in data set [1] is 1260 nM. In addition, the EC50 in data set [2] is 0.794 nM. As for `CC(C)(C)c1nc2cc(S(=O)(=O)C(F)(F)c3ccc(C#N)cc3)ccc2n1CCCCC(F)(F)F` [compound 21], the EC50 is 79.4 nM in data set [1] and 3.16 nM in data set [2]. For `CC(C)(C)c1nc2cc(Sc3ccc(C#N)cc3)ccc2n1CCCC(F)(F)F` [compound 9] the same measures were 25.1 nM and 1 nM.

As for `CC(C)(C)c1nc2cc(S(=O)(=O)c3ccc(C#N)cc3)ccc2n1CCCC(F)(F)F`, the melting point stood at 165.1 °C. Turning to `CC(C)(C)c1nc2cc(S(=O)(=O)C3CCNC3=O)ccc2n1CCCC(F)(F)F` (stereo not drawn) [compound 16], the EC50 in data set [1] is 3980 nM; in data set [2], 2.51 nM.

In the case of `CC(C)(C)c1nc2cc(S(=O)(=O)C(C)(C)c3ccc(C#N)cc3)ccc2n1CCCCC(F)(F)F`, the melting point amounted to 187.6 °C.

Regarding `CC(C)(C)c1nc2cc(S(=O)(=O)C3CCNC3=O)ccc2n1CCCCC(F)(F)F` (stereo not drawn) [compound 23], the EC50 was 1580 nM in data set [1] and 5.01 nM in data set [2]. On to `CC(C)(C)c1nc2cc(S(=O)(=O)c3ccc(C(N)=O)cc3)ccc2n1CCCC(F)(F)F`, for which the melting point amounted to 207.8 °C. Take `CC(C)(C)c1nc2cc(S(=O)(=O)c3ccc(C#N)cc3)ccc2n1CCCC(F)(F)F` [compound 6]: the EC50 in data set [1] was 79.4 nM; in data set [2], 0.398 nM. With `CC(C)(C)c1nc2cc(S(=O)(=O)c3ccncc3)ccc2n1CCCC(F)(F)F`, the melting point was found to be 155.4 °C. Regarding `CC(C)(C)c1nc2cc(S(=O)(=O)c3ccncc3)ccc2n1CCCCC(F)(F)F` [compound 13], the melting point stood at 147.6 °C. Further, the EC50 in data set [1] is 200 nM. Besides, in data set [2], the EC50 is 1.58 nM. `CC(C)(C)c1nc2cc(S(=O)(=O)C3CCNC3=O)ccc2n1CCCC(F)(F)F` (stereo not drawn) showed a melting point of 208.7 °C. In turn, `CC(C)(C)c1nc2cc(S(=O)(=O)Cc3ccc(C#N)cc3)ccc2n1CCCCC(F)(F)F` registered a melting point of 177.4 °C.

On to `CC(C)(C)c1nc2cc(SCC3CC3)ccc2n1CCCCC(F)(F)F` [compound 14], for which the EC50 in data set [1] is 10 nM; in data set [2], 2 nM. As for `COc1ccc(CSc2ccc3c(c2)nc(C(C)(C)C)n3CCCC(F)(F)F)cc1` [compound 1], the EC50 is > 10000 nM in data set [1] and 5.01 nM in data set [2]. For `CC(C)(C)c1nc2cc(Sc3cn[nH]c3)ccc2n1CCCC(F)(F)F` [compound 8] the same measures were > 10000 nM and 0.631 nM. Consider `COc1ccc(CSc2ccc3c(c2)nc(C(C)(C)C)n3CCCC(F)(F)F)cc1`, for which the melting point was determined as 143.2 °C.

Consider `CC(C)(C)c1nc2cc(S(=O)(=O)Cc3ccc(C#N)cc3)ccc2n1CCCCC(F)(F)F` [compound 19], for which the EC50 in data set [1] was > 10000 nM; in data set [2] it was 2 nM. For `CC(C)(C)c1nc2cc(S(=O)(=O)c3ccncc3)ccc2n1CCCC(F)(F)F` [compound 4] the same measures were 2510 nM and 0.398 nM. `CC(C)(C)c1nc2cc(S(=O)(=O)CC3CC3)ccc2n1CCCC(F)(F)F` [compound 3]: the results for the EC50 in data set [1] and in data set [2] were 316 nM and 1.26 nM, respectively. In the case of `CC(C)(C)c1nc2cc(S(=O)(=O)C(C)(C)c3ccc(C#N)cc3)ccc2n1CCCCC(F)(F)F` [compound 20], the results for the EC50 in data set [1] and in data set [2] were 2000 nM and 1.58 nM, respectively. As to `CC(C)(C)c1nc2cc(S(=O)(=O)CC3CC3)ccc2n1CCCCC(F)(F)F` [compound 11], the figures for the EC50 in data set [1] and in data set [2] were 31.6 nM and 1.58 nM, respectively. Compound `CC(C)(C)c1nc2cc(S(=O)(=O)c3ccc(C#N)cc3)ccc2n1CCCCC(F)(F)F` [compound 12] displayed a melting point of 180.1 °C. Besides, the EC50 in data set [1] was 25.1 nM. Further, in data set [2], the EC50 was 1 nM. The like results for `CC(C)(C)c1nc2cc(S(=O)(=O)Cc3ccc(C(N)=O)cc3)ccc2n1CCCCC(F)(F)F` [compound 22] were, in that order, 222.8 °C, 79.4 nM and 2 nM. For the compound `CC(C)(C)c1nc2cc([S+]([O-])c3ccc(C#N)cc3)ccc2n1CCCC(F)(F)F` (stereo not drawn) [compound 7], the EC50 in data set [1] was > 10000 nM; in data set [2], 2.51 nM. The like results for `COc1ccc(CSc2ccc3c(c2)nc(C(C)(C)C)n3CCCCC(F)(F)F)cc1` [compound 10] were, in that order, > 10000 nM and 6.31 nM.

The record behind these values is patent publication US20100273831A1, “FLUORO ALKYL SUBSTITUTED BENZIMIDAZOLE CANNABINOID AGONISTS” (priority 2007, published 2010).
